For orientation: IC50 means the point on the concentration scale where inhibition reaches its midpoint.

For assay [1], the target named is T1, human 15-PGDH (Homo sapiens, UniProt P15428).
T1 construct: comprising residues 3–256 of the human HPGD gene (GenBank identifier: 1203982); His6 (GHHHHHH, behind the TEV site) (C, cleaved yes); made in house; host or cells: E. coli BL21(DE3)-R3
T1 sequence (P15428 3-256): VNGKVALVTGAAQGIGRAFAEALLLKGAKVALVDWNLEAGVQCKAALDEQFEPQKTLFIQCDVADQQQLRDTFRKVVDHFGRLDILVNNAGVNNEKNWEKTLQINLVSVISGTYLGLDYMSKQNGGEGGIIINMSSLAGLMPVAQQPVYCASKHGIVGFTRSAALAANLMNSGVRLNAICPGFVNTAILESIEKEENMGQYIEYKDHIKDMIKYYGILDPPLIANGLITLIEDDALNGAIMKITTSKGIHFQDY
The assay can be described thus: qHTS and 24-point re-test: fluorescence assay of NAD+ reduction to NADH on PGE2 oxidation (PubChem AID 894). To be noted: potency in 24-point titrations on re-test; 20 nM 15-PGDH, 1 mM NAD+, 30 µM PGE2, pH 8.0; read-out: qHTS IC50. The format is biochemical. How it is done: The assay was miniaturized to a 4-µL volume in 1536-well format: enzyme (3 µL) was dispensed first, followed by a pintool transfer of library compounds dissolved in DMSO. After equilibration, a substrate dispense (1 µL) initiated the enzymatic reaction (see Materials and Methods, for detailed protocol description). […] Hits associated with low-efficacy (<40% maximum inhibition), incomplete curves, as well as those displaying only a single-point inhibition at the top concentration tested were eliminated from further consideration. Similarly, the collection of real-time kinetic data allowed the autofluorescence of each compound to be evaluated by comparing the initial fluorescence read at top concentration with the mean value of uninhibited assay controls: compounds whose top-concentration initial well fluorescence exceeded six standard deviations over the mean were flagged as potential autofluorescent artifacts, [28] (see example in supplementary information Figure S1E). The complete screening and followup results are available in PubChem (PubChem Assay ID 894).
The enzymatic reaction was performed in 50 mM Tris-HCl pH 8.0, containing 0.01% Tween 20. […] The high-throughput screen was performed on a fully integrated robotic system (Kalypsys Inc, San Diego, CA) as described elsewhere. Library compounds, arrayed as seven-point inter-plate concentration series, were screened from the lowest (3.5 nM) to the highest (57.5 µM) concentration, with plates containing DMSO only, serving to note any systematic drifts in the signal, interspersed evenly throughout the screen (approximately every 50 plates). Briefly, 3 µL of reagents were dispensed into 1536-well Greiner black solid-bottom assay plates using integrated nanoliter solenoid-technology dispensers. Compounds and controls (23 nL) were transferred via Kalypsys pintool equipped with 1,536-pin array (10-nL slotted pins; V&P Scientific, Palo Alto, CA). After a 15-minute incubation (to allow for interaction between compound and enzyme), a 1-µL substrate addition step initiated the reaction. Kinetic data were collected on a ViewLux High-throughput CCD imager (Perkin-Elmer) equipped with standard UV fluorescence optics (exc. 340 nm, em. 450 nm).
Starting fluorescence intensity and the change in fluorescence over the two-minute initial rate period were recorded for every well. Screening data were normalized against no-enzyme (64 wells, columns 3 and 4) and no-compound (32 wells located in column 1) controls, and concentration-response relationships were derived as described previously. A four-parameter Hill equation [47] was fitted to the concentration-response data using publicly available algorithms (http://www.ncgc.nih.gov/pub/openhts/curvefit/).

Assay [2] concerns the target T1, human 15-PGDH. The experiment in a line: Differential scanning fluorimetry (DSF), thermal stabilization. The format is binding. The note with it: 1 µM protein, compound 50 or 250 µM, N/A = no unfolding transition observed in DSF; for ∆Tm [°C] NAD+: with 200 µM NAD+; for ∆Tm [°C] NADH: with 200 µM NADH; for ∆Tm [°C] apo: without cofactor. On the procedure:
A correlation between the ΔTm and the inhibitory potency has been shown in a number of protein-ligand systems, particularly for kinases [32]–[34].
Studies to assess the thermal stability of human 15-PGDH in presence of compounds were performed as described previously, with variations. Briefly, the protein was diluted to a final assay concentration of 1 µM in 100 mM Tris buffer pH 8.0, containing 0.01% Tween-20 and 1∶1000 SYPRO orange dye (Invitrogen). […] Compounds were added at a ratio of 1∶5 from appropriate stock solutions in 10% (v/v) DMSO to comprise either 50 or 250 µM final concentrations. Heat denaturation curves were recorded using a RT-PCR instrument (Mx3005p, Agilent) applying a temperature gradient of 2°C/min. […] 2.5 (ftp://ftp.sgc.ox.ac.uk/pub/biophysics) and PRISM 5.0 (GraphPad Software, Inc.).
For orientation: Differential scanning fluorimetry follows unfolding on heating by fluorescence.

As to `Brc1ccc(-c2cc3n(n2)CCc2nc4ccccc4n2-3)cc1` [Compound 55], at human 15-PGDH [1], the IC50 is 1120 nM. On human 15-PGDH [2], the “∆Tm [°C] NAD+” value turned out to be 3.7 °C, the “∆Tm [°C] NADH” value turned out to be 4.7 °C and the “∆Tm [°C] apo” value came out at 0.1 °C.

Regarding `COCCNC(=O)c1cc2oc3ccccc3c2n1C` [Compound 45], the IC50 at human 15-PGDH [1] amounted to 1580 nM. For the same compound, on human 15-PGDH [2], the “∆Tm [°C] NAD+” value was determined as 2.7 °C, the “∆Tm [°C] NADH” value turned out to be 2.9 °C and the “∆Tm [°C] apo” value is -1.9 °C.

In the case of `C=CCN1C(=O)[C@@H](CC(=O)Nc2cc(C)ccc2C)SC1=Nc1cc(C)cc(C)c1` [Compound 8], the IC50 at human 15-PGDH [1] was found to be 200 nM. In addition, at human 15-PGDH [2], the “∆Tm [°C] NAD+” value is 3.0 °C, the “∆Tm [°C] NADH” value turned out to be 6.6 °C and the “∆Tm [°C] apo” value is -1.4 °C.

As for `COC(=O)c1cc(CNC(=O)C2(c3ccc(Cl)cc3)CC2)ccc1OC` [Compound 20], the IC50 on human 15-PGDH [1] is 224 nM. Also, at human 15-PGDH [2], the “∆Tm [°C] NAD+” value was found to be 3.1 °C, the “∆Tm [°C] NADH” value was determined as 7.9 °C and the “∆Tm [°C] apo” value came out at 0.3 °C.

With `C=C(C(=O)OC)C1CCC2(C)C(OC(=O)C(Cc3ccc(O)cc3)OC(=O)C(O)C(C)C)CCC(O)(COC3OC(CO)C(O)C(O)C3O)C2C1O` (stereo not shown) [Compound 2], the half-maximal inhibitory concentration (IC50) on human 15-PGDH [1] is 794 nM. In addition, on human 15-PGDH [2], the “∆Tm [°C] NAD+” value is 1.7 °C, the “∆Tm [°C] NADH” value came to 6.0 °C and the “∆Tm [°C] apo” value was -0.6 °C.

For the compound `CCCC(C(=O)O)C(C)(C)O` (stereo not shown) [Compound 32], the IC50 on human 15-PGDH [1] came out at 282 nM. At human 15-PGDH [2], the “∆Tm [°C] NAD+” value is 3.9 °C, the “∆Tm [°C] NADH” value came to 9.6 °C and the “∆Tm [°C] apo” value is -1.4 °C.

As for `Cc1ccc(C2=NC(=CN3CCOCC3)C(=O)O2)cc1` [Compound 54], the IC50 on human 15-PGDH [1] was 2510 nM. Moreover, at human 15-PGDH [2], the “∆Tm [°C] NAD+” value was 6.0 °C, the “∆Tm [°C] NADH” value is 3.9 °C and the “∆Tm [°C] apo” value is -1.5 °C.

Take `O=C(O)CC1(CO)CC1` [Compound 9]: the IC50 at human 15-PGDH [1] came to 224 nM. For the same compound, at human 15-PGDH [2], the “∆Tm [°C] NAD+” value is 2.2 °C, the “∆Tm [°C] NADH” value was 7.8 °C and the “∆Tm [°C] apo” value was -1.1 °C.

On to `CN(Cc1cccc(Cl)c1)c1ccc(S(C)(=O)=O)cc1S(C)(=O)=O` [Compound 12], for which, at human 15-PGDH [1], the 50% inhibitory concentration (IC50) was determined as 355 nM. Moreover, on human 15-PGDH [2], the “∆Tm [°C] NAD+” value was 2.2 °C, the “∆Tm [°C] NADH” value was determined as 7.1 °C and the “∆Tm [°C] apo” value was -1.6 °C.

As for `Cc1ccc2cc3c(N)c(C(=O)N4CCC(C)CC4)sc3nc2c1` [Compound 48], the IC50 at human 15-PGDH [1] came to 1000 nM. Also, at human 15-PGDH [2], the “∆Tm [°C] NAD+” value is 0.5 °C, the “∆Tm [°C] NADH” value is 3.3 °C and the “∆Tm [°C] apo” value is -0.6 °C.

On to `Cc1ccccc1C(=O)N1CCc2ccccc2C1` [Compound 18], for which the IC50 on human 15-PGDH [1] stood at 2510 nM. Besides, at human 15-PGDH [2], the “∆Tm [°C] NAD+” value was determined as 1.5 °C, the “∆Tm [°C] NADH” value came to 2.2 °C and the “∆Tm [°C] apo” value was -1.1 °C.

For `CCCCCCCCNCCOCCOCCOCCOCCNCCCCCCCC` [Compound 31], the 50% inhibitory concentration (IC50) at human 15-PGDH [1] is 3980 nM. Also, on human 15-PGDH [2], the “∆Tm [°C] NAD+” value was found to be 1.1 °C, the “∆Tm [°C] NADH” value turned out to be 4.8 °C and the “∆Tm [°C] apo” value was -0.1 °C.

Turning to `COc1ccc(C2C(C(=O)O)c3ccccc3C(=O)N2Cc2ccccc2)cc1` (stereo not shown) [Compound 35], on human 15-PGDH [1], the IC50 came to 7080 nM. Besides, on human 15-PGDH [2], the “∆Tm [°C] NAD+” value came to 1.2 °C, the “∆Tm [°C] NADH” value amounted to 2.2 °C and the “∆Tm [°C] apo” value is -0.1 °C.

Take `CNC(C)C(O)c1ccccc1.O=S(=O)(O)O` (stereo not shown) [Compound 84]: at human 15-PGDH [1], the 50% inhibitory concentration (IC50) worked out at 1410 nM. Moreover, at human 15-PGDH [2], the “∆Tm [°C] NAD+” value came to 1.5 °C, the “∆Tm [°C] NADH” value was -0.1 °C and the “∆Tm [°C] apo” value amounted to 0.7 ± 0.1 °C.

Regarding `CC(O)CN(C)C(C)N(CCN(C)C)CCN(C)C` (stereo not shown) [Compound 56], the half-maximal inhibitory concentration (IC50) on human 15-PGDH [1] worked out at 1000 nM. At human 15-PGDH [2], the “∆Tm [°C] NAD+” value is 6.1 °C, the “∆Tm [°C] NADH” value came to 0.4 °C and the “∆Tm [°C] apo” value is 0.0 °C.

With `COc1ccc(C(=O)OCC(=O)Nc2c(C)cccc2C)cc1S(=O)(=O)N(C)C` [Compound 57], the IC50 on human 15-PGDH [1] was determined as 2240 nM. In addition, at human 15-PGDH [2], the “∆Tm [°C] NAD+” value is 9.2 °C, the “∆Tm [°C] NADH” value turned out to be 1.6 °C and the “∆Tm [°C] apo” value is -0.3 °C.

In the case of `O=C(c1ccc(N2C(=O)C3CC=C(Cl)CC3C2=O)cc1)N1CCCCC1` (stereo not shown) [Compound 1], the IC50 at human 15-PGDH [1] is 251 nM. On human 15-PGDH [2], the “∆Tm [°C] NAD+” value was 3.0 °C, the “∆Tm [°C] NADH” value came out at 6.1 °C and the “∆Tm [°C] apo” value was -0.1 °C.

For `Cc1cc(=O)oc2cc(OCC(=O)N3CCCc4ccccc43)ccc12` [Compound 79], the IC50 at human 15-PGDH [1] came out at 1120 nM. For the same compound, the “∆Tm [°C] apo” value at human 15-PGDH [2] was -4.1 °C.

Values taken from publication PMC2970562, “High-Affinity Inhibitors of Human NAD^+-Dependent 15-Hydroxyprostaglandin Dehydrogenase: Mechanisms of Inhibition and Structure-Activity Relationships” (PLoS ONE, 2010).
